Data: patent US20230312587A1, “PTERIDINONE COMPOUNDS AND USES THEREOF” (Vertex Pharmaceutical Incorporated, priority 2018, published 2023)
Like-named read-outs stand apart in the source and are kept apart here.

Key:
Assay type in all cases: cell-based
HepG2 XBP1(u)-Luc cells = test: HepG2 XBP1 reporter assay; details: 6 h
How it was run: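 Reporter cells are HepG2 stably carrying unspliced XBP1 fused to firefly luciferase, which becomes in-frame after IRE1alpha-mediated splicing. SteadyGlo luminescence was normalized to DMSO-treated cells for IC50 calculation.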

Colo-205 cells = test: Calcium flux assay (FLIPR Calcium 5); details: FLIPR Calcium 5, measured over 36 minutes
Procedure: Compounds described herein induced ER stress by causing intracellular calcium flux. Calcium flux was measured in Colo-205 cells using the FLTPR® Calcium 5 Assay Kit according to manufacter's protocol (Molecular Devices, Cat. #R8186) on a FLIPR3 system (Molecular Devices). Calcium flux is measured over 36 minutes. The Colo-205 calcium flux assay data are summarized in Table 47: A<0.6 μM; 0.6 μM≤B<2.0 μM; 2.0 μM≤C<10.0 μM; D≥10.0 μM.

HepG2 parental = test: In vitro cell viability (CellTiter-Glo), HepG2 parental; details: 96 hours
Procedure: HEK293 cells containing empty pCLPCx vector (HEK293 empty), HEK293 cells stably over-expression WFS1 (HEK293 WFS1), HepG2, and HepG2 cells where WFS1 was depleted via CRISPR/Cas9 (HepG2 WFS1 KO) cells were plated into 96-well black plates (Corning, product #3904) in 100 microliters of complete DMEM cell culture media [DMEM (Life Technologies, product #11960-051) media supplemented with 10% FBS (Hyclone, catalog #SH30071.03), antimycotic/antibiotic (Life Technologies, product #15240-062), and Glutamax (Life Technologies, product #35050-061)] at 1,000 (HEK293) or 5,000 (HepG2) cells per well. Cells were allowed to attach and grow overnight, after which compounds are added at various concentrations. Cell viability was assessed 96 hrs after compound addition with CellTiter-Glo reagent (Promega, catalog #G7570) according to manufacturer's protocol and measurement on a Pherastar luminescence plate reader (BMG Labtech).
To determine the effect of WFS1 depletion on compound mediated inhibition of cell viability, parental HepG2 cells and HepG2 cells where WFS1 was deleted by CRISPR/Cas9 were exposed to increasing concentrations of either Compound 136 or Compound 253 for 96 hours after which time viability was determined using Cell Titer Glo reagent (Promega). […] The IC50s for the viability of both the HepG2 parental and WFS1 knockout cells are summarized in Table 47: A<0.5 μM; 0.5 μM≤<2.0 μM; 2.0 μM≤C<10.0 μM; D≥[…].

Hek293 empty vector = test: In vitro cell viability (CellTiter-Glo), Hek293 empty vector
How it was run: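 HEK293 cells stably transduced with empty pCLPCX retroviral vector (puromycin-selected), seeded 1,000 cells/well, treated next day with compounds at various concentrations. Viability read by CellTiter-Glo luminescence 96 hrs after compound addition; IC50 derived.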

[1] = system: Hek293 WFS1 over-expressor; test: In vitro cell viability (CellTiter-Glo), Hek293 WFS1 over-expressor
How it was run: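 HEK293 cells stably overexpressing WFS1 via retroviral transduction (puromycin-selected), with empty-vector cells as counterpart, plated 1,000/well. Compounds added at various concentrations after overnight attachment; viability by CellTiter-Glo luminescence after 96 h, reported as IC50.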

[2] = Homo sapiens, read-out: HepG2 viability
[3] = Homo sapiens, HEK293, read-out: Hek293 empty vector viability
[4] = Homo sapiens, HEK293, Hek293 WFS1 over-expressing cells, read-out: Hek293 WFS1 viability

| Structure (SMILES) | IC50 (HepG2 XBP1(u)-Luc cells; Homo sapiens) | EC50 (Colo-205 cells; Homo sapiens, COLO 205, 0.6 h) | IC50 (HepG2 parental; [2]) | IC50 (Hek293 empty vector; [3]) | IC50 [1, 4] | also measured |
| --- | --- | --- | --- | --- | --- | --- |
| Cc1nc(NCc2cnn(Cc3ccc(C(F)(F)F)nc3)c2)nc2c1NC(=O)[C@H](C)N2C [Compound 136, (7S)-4,7,8-trimethyl-2-(((1-((6-(trifluoromethyl)pyridin-3-yl)methyl)-111-pyrazol-4-yl)methyl)amino)-7,8-dihydropteridin-6(5H)-one] | – | – | – | – | – | IC50 (HepG2 XBP1(u)-Luc cells): 600 to 2000 nM; EC50 (Colo-205 cells): 600 to 2000 nM; IC50 (HepG2 parental; read-out: HepG2 viability): 500 to 2000 nM; IC50 (HepG2 parental; cell viability, Cell Titer Glo, read-out: IC50): 330 nM; IC50 (HepG2 parental; cell viability, read-out: IC50 class): < 500 nM; IC50 (Hek293 empty vector; Hek293 empty vector, read-out: Hek293 empty vector viability): ≥ 3000 nM; IC50 (Hek293 empty vector; cell viability, Hek293 empty vector, read-out: IC50): > 27000 nM; IC50 (Hek293 empty vector; cell viability, Hek293 empty vector, read-out: IC50 class): ≥ 3000 nM; IC50 ([1]; Hek293 WFS1 over-expressing cells, read-out: Hek293 WFS1 viability): < 60 nM; IC50 ([1]; cell viability, Hek293 WFS1 over-expressor, read-out: IC50): 30 nM; IC50 ([1]; cell viability, Hek293 WFS1 over-expressor, read-out: IC50 class): < 60 nM; reduction in the IC50 on over-expression of WFS1 in Hek293 cells ([1]; cell viability, WFS1 over-expressor vs empty vector): > 1000 fold |
| Cc1nn(C)cc1Cn1cc(CNc2nc(C)c3c(n2)N(C)[C@@H](C)C(=O)N3)cn1 [Compound 139, (7S)-2-(((1-((1,3-dimethyl-1H-pyrazol-4-yl)methyl)-1H-pyrazol-4-yl)methyl)amino)-4,7,8-trimethyl-7,8-dihydropteridin-6(5H)-one] | ≥ 10000 nM | 2000 to 10000 nM | ≥ 10000 nM | ≥ 3000 nM | ≥ 3000 nM | – |
| Cc1nc(NCc2cnn(Cc3ccc(C(F)(F)F)cc3)c2)nc2c1NC(=O)[C@H](C)N2C [Compound 149, (7S)-4,7,8-trimethyl-2-(((1-(4-(trifluoromethyl)benzyl)-1H-pyrazol-4-yl)methyl)amino)-7,8-dihydropteridin-6(5H)-one] | < 600 nM | < 600 nM | < 500 nM | ≥ 3000 nM | < 60 nM | – |
| Cc1ncc(Cn2cc(CNc3nc(C)c4c(n3)N(C)[C@@H](C)C(=O)N4)cn2)cn1 [Compound 163, (7S)-4,7,8-trimethyl-2-(((1-((2-methylpyrimidin-5-yl)methyl)-1H-pyrazol-4-yl)methyl)amino)-7,8-dihydropteridin-6(5H)-one] | ≥ 10000 nM | 2000 to 10000 nM | ≥ 10000 nM | ≥ 3000 nM | ≥ 3000 nM | – |
| Cc1cnc(C(F)(F)F)nc1-n1cc(CNc2ncc3c(n2)N(C)[C@@H](C)C(=O)N3)cn1 [Compound 164, (7S)-7,8-dimethyl-2-(((1-(5-methyl-2-(trifluoromethyl)pyrimidin-4-yl)-1H-pyrazol-4-yl)methyl)amino)-7,8-dihydropteridin-6(5H)-one] | 2000 to 10000 nM | 2000 to 10000 nM | ≥ 10000 nM | ≥ 3000 nM | 600 to 3000 nM | – |
| Cc1nc(NCc2cnn([C@@H]3CCN(c4ccc(F)cc4)C3)c2)nc2c1NC(=O)[C@H](C)N2C [Compound 170, (7S)-2-(((1-((R)-1-(4-fluorophenyl)pyrrolidin-3-yl)-1H-pyrazol-4-yl)methyl)amino)-4,7,8-trimethyl-7,8-dihydropteridin-6(5H)-one] | < 600 nM | < 600 nM | < 500 nM | ≥ 3000 nM | < 60 nM | – |
| Cc1nc(NCc2cnn(Cc3ccc(F)cc3)c2)nc2c1NC(=O)C1(CC1)N2 [Compound 222, 2′-(((1-(4-fluorobenzyl)-1H-pyrazol-4-yl)methyl)amino)-4′-methyl-5′,8′-dihydro-6′H-spiro[cyclopropane-1,7′-pteridin]-6′-one] | ≥ 10000 nM | 2000 to 10000 nM | ≥ 10000 nM | ≥ 3000 nM | ≥ 3000 nM | – |
| CN1C(=O)C(C)(C)N(C)c2nc(NCc3cnn(Cc4cccnc4C(F)(F)F)c3)ncc21 [Compound 237, 5,7,7,8-Tetramethyl-2-(((1-((2-(trifluoromethyl)pyridin-3-yl)methyl)-1H-pyrazol-4-yl)methyl)amino)-7,8-dihydropteridin-6(5H)-one] | 600 to 2000 nM | 600 to 2000 nM | ≥ 10000 nM | ≥ 3000 nM | 60 to 600 nM | – |
| Cc1nc(N[C@H]2C[C@@H](Oc3cc(F)c(F)c(F)c3)C2)nc2c1NC(=O)[C@H](C)N2C [Compound 247, (7S)-4,7,8-trimethyl-2-((cis-3-(3,4,5-trifluorophenoxy)cyclobutyl)amino)-7,8-dihydropteridin-6(5H)-one] | ≥ 10000 nM | 2000 to 10000 nM | 2000 to 10000 nM | ≥ 3000 nM | ≥ 3000 nM | – |
| Cc1nc(N[C@H]2C[C@@H](Sc3ccc(F)cc3)C2)nc2c1N(C)C(=O)[C@H](C)N2C [Compound 305, (7S)-2-((cis-3-((4-fluorophenyl)thio)cyclobutyl)amino)-4,5,7,8-tetramethyl-7,8-dihydropteridin-6(5H)-one] | 2000 to 10000 nM | 600 to 2000 nM | ≥ 10000 nM | ≥ 3000 nM | 60 to 600 nM | – |
| Cc1nc(N[C@H]2C[C@H](Sc3ccc(F)cc3)C2)nc2c1N(C)C(=O)[C@H](C)N2C [Compound 307, (7S)-2-((trans-3-((4-fluorophenyl)thio)cyclobutyl)amino)-4,5,7,8-tetramethyl-7,8-dihydropteridin-6(5H)-one] | 600 to 2000 nM | 600 to 2000 nM | 2000 to 10000 nM | ≥ 3000 nM | 60 to 600 nM | – |
| Cc1nc(N[C@H]2C[C@H](Oc3ccnc(C(F)(F)F)c3)C2)nc2c1NC(=O)[C@H](C)N2C [Compound 335, (7S)-4,7,8-trimethyl-2-((trans-3-((2-(trifluoromethyl)pyridin-4-yl)oxy)cyclobutyl)amino)-7,8-dihydropteridin-6(5H)-one] | < 600 nM | 600 to 2000 nM | 2000 to 10000 nM | ≥ 3000 nM | < 60 nM | – |
| Cc1nc(N[C@H]2C[C@@H](COc3ccc(C(F)(F)F)cn3)C2)nc2c1NC(=O)[C@H](C)N2C [Compound 356, (7S)-4,7,8-trimethyl-2-((cis-3-(((5-(trifluoromethyl)pyridin-2-yl)oxy)methyl)cyclobutyl)amino)-7,8-dihydropteridin-6(5H)-one] | < 600 nM | 600 to 2000 nM | ≥ 10000 nM | ≥ 3000 nM | < 60 nM | – |
| Cc1nc(N[C@H]2C[C@H](Oc3ccc(F)nc3)C2)nc2c1NC(=O)[C@H](C)N2C [Compound 357, (7S)-2-((trans-3-((6-fluoropyridin-3-yl)oxy)cyclobutyl)amino)-4,7,8-trimethyl-7,8-dihydropteridin-6(5H)-one] | 2000 to 10000 nM | 600 to 2000 nM | 2000 to 10000 nM | ≥ 3000 nM | 60 to 600 nM | – |
| Cc1nc(NCc2cnn(Cc3ccc(C(F)(F)F)nc3)c2)nc2c1NC(=O)[C@H](C(C)C)N2C [Compound 383, (7S)-7-isopropyl-4,8-dimethyl-2-(((1-((6-(trifluoromethyl)pyridin-3-yl)methyl)-1H-pyrazol-4-yl)methyl)amino)-7,8-dihydropteridin-6(5H)-one] | 600 to 2000 nM | 600 to 2000 nM | < 500 nM | ≥ 3000 nM | < 60 nM | – |
| Cc1nc(NCc2cnn(Cc3ccc(F)nc3)c2)nc2c1NC(=O)[C@H](C(C)C)N2C [Compound 384, (7S)-2-(((1-((6-fluoropyridin-3-yl)methyl)-1H-pyrazol-4-yl)methyl)amino)-7-isopropyl-4,8-dimethyl-7,8-dihydropteridin-6(5H)-one] | 600 to 2000 nM | 600 to 2000 nM | < 500 nM | ≥ 3000 nM | < 60 nM | – |
| Cc1nc(NCc2cnn(Cc3ccc(C(F)(F)F)nc3)c2)nc2c1NC(=O)C1(CCC1)N2C [Compound 398, 4′,8′-dimethyl-2′-(((1-((6-(trifluoromethyl)pyridin-3-yl)methyl)-1H-pyrazol-4-yl)methyl)amino)-5′,8′-dihydro-6′H-spiro[cyclobutane-1,7′-pteridin]-6′-one] | 600 to 2000 nM | 600 to 2000 nM | 500 to 2000 nM | ≥ 3000 nM | < 60 nM | – |
